Source: patent US8168668B2, “Compounds” (AstraZeneca AB, priority 2005, dated 2012)
≈ marks a conversion by molar mass, not a printed value.

How the values were obtained:
hVR1 = target: T1, hVR1 (Homo sapiens, UniProt Q8NER1); experiment: hVR1 FLIPR (Fluorometric Image Plate Reader) screening assay; format: cell-based; settings: inhibition of capsaicin-induced intracellular calcium increase
T1 construct: expressed in transfected cells
Method: 1. hVR1 FLIPR (Fluorometric Image Plate Reader) Screening Assay
Transfected CHO cells, stably expessing hVR1 (15,000 cells/well) are seeded in 50 ul media in a black clear bottom 384 plate (Greiner) and grown in a humidified incubator (37° C., 2% CO2), 24-30 hours prior to experiment.
Subsequently, the media is removed from the cell plate by inversion and 2 μM Fluo-4 is added using a multidrop (Labsystems). Following the 40 minutes dye incubation in the dark at 37° C. and 2% CO2, the extracellular dye present is washed away using an EMBLA (Scatron), leaving the cells in 40 ul of assay buffer (1×HBSS, 10 mM D-Glucose, 1 mM CaCl2, 10 mM HEPES, 10×7.5% NaHCO3 and 2.5 mM Probenecid).
FLIPR Assay—IC50 Determination Protocol
For IC50 determinations the fluorescence is read using FLIPR filter 1 (em […]). A is cellular baseline recording is taken for 30 seconds, followed by a 20 μl addition of 10, titrated half-log concentrations of the test compound, yielding cellular concentration ranging from 3 μM to 0.1 nM. Data is collected every 2 seconds for a further 5 minutes prior to the addition of a VR1 agonist solution: 20-50 nM solution of capsaicin by the FLIPR pipettor. The FLIPR continues to collect data for a further 4 minutes. Compounds having antagonistic properties against the hVR1 will inhibit the increase in intracellular calcium in response to the capsaicin addition. This consequently leading to a reduction in fluorescence signal and providing a reduced fluorescence reading, compared with no compound, buffer controls. Data is exported by the FLIPR program as a sum of fluorescence calculated under the curve upon the addition of capsaicin. Maximum inhibition, Hill slope and IC50 data for each compound are generated. […]

[1] = tested on: carrageenan-induced heat hyperalgesia; experiment: Carrageenan model, heat plantar test (paw withdrawal latency); format: in vivo; settings: rat, orally administered; for EC50 / ED50: po; for EC50 / ED50 / EC80: tested at Tmax; for Extrapolated Emax: non-linear regression; for Emax observed: reversal of heat hyperalgesia
aqueous solubility test = format: physicochemical; settings: aqueous medium, pH 7.4, aqueous buffer
[2] = tested on: FCA-induced heat hyperalgesia; experiment: Freund's Complete Adjuvant (FCA) model, heat plantar test (paw withdrawal latency); format: in vivo; settings: rat, orally administered

T1 sequence (Q8NER1 whole entry): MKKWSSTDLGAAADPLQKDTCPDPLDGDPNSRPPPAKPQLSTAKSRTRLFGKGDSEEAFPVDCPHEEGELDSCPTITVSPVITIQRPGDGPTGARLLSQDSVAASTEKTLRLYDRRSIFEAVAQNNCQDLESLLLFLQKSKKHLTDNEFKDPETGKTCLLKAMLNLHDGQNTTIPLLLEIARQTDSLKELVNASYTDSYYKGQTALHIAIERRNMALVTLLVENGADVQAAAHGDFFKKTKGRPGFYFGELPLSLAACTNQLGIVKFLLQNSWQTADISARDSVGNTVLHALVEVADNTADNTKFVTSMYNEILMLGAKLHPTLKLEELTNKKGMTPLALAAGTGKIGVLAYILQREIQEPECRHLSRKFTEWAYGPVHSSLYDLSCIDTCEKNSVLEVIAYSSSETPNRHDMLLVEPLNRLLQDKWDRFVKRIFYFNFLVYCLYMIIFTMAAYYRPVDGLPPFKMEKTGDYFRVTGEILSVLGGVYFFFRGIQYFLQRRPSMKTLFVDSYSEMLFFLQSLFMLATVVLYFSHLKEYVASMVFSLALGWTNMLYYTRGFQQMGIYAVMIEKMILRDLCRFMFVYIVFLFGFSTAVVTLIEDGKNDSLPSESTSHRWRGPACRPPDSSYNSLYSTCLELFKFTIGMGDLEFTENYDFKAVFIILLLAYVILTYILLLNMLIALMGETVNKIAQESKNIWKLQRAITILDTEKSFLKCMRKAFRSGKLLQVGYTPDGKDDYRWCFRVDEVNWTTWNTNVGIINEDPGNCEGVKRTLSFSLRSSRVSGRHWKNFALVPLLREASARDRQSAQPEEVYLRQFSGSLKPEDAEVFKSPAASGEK

Row | Compound | IC50 (hVR1) | solubility (aqueous solubility test) | also measured
1 | CC(C)Oc1ccc([C@H](C)NC(=O)Cn2cnc3cccc([N+](=O)[O-])c32)cc1 [Example 1, N-[(1S)-1-(4-isopropoxyphenyl)ethyl]-2-(7-nitro-1H-benzimidazol-1-yl)acetamide] | 1 nM | – | –
2 | C[C@H](NC(=O)Cn1cnc2cccc([N+](=O)[O-])c21)c1ccc(OC(CF)CF)cc1 [Example 2, N-((1S)-1-{4-[2-fluoro-1-(fluoromethyl)ethoxy]phenyl}ethyl)-2-(7-nitro-1H-benzimidazol-1-yl)acetamide] | – | – | EC50 [1]: 105 nM; ED50 [1]: 1.3 µmol/kg; Extrapolated Emax [1]: 79%; Emax observed [1]: 79%; EC80 [1]: 170 nM
3 | C[C@H](NC(=O)Cn1cnc2cccc([N+](=O)[O-])c21)c1ccc(OCCF)cc1 [Example 3, N-{(1S)-1-[4-(2-fluoroethoxy)phenyl]ethyl}-2-(7-nitro-1H-benzimidazol-1-yl)acetamide] | – | 90 µM (≈ 34.8 µg/mL) | –
4 | C#CC(C)Oc1ccc([C@H](C)NC(=O)Cn2cnc3cccc([N+](=O)[O-])c32)cc1 (stereo partly drawn) [Example 4, N-((1S)-1-{4-[(1-methylprop-2-yn-1-yl)oxy]phenyl}ethyl)-2-(7-nitro-1H-benzimidazol-1-yl)acetamide] | 3 nM | – | –
5 | COCC(C)Oc1ccc([C@H](C)NC(=O)Cn2cnc3cccc([N+](=O)[O-])c32)cc1 (stereo partly drawn) [Example 5, N-{(1S)-1-[4-(2-methoxy-1-methylethoxy)phenyl]ethyl}-2-(7-nitro-1H-benzimidazol-1-yl)acetamide] | – | 97 µM (≈ 40 µg/mL) | –
6 | CCOc1ccc([C@H](C)NC(=O)Cn2cnc3cccc([N+](=O)[O-])c32)cc1 [Example 6, N-[(1S)-1-(4-ethoxyphenyl)ethyl]-2-(7-nitro-1H-benzimidazol-1-yl)acetamide] | – | 72 µM (≈ 26.5 µg/mL) | –
7 | CC(NC(=O)Cn1cnc2cccc([N+](=O)[O-])c21)c1ccc(OCC(F)F)nc1 (stereo not shown) [Example 9, N-{1-[6-(2,2-difluoroethoxy)pyridin-3-yl]ethyl}-2-(7-nitro-1H-benzimidazol-1-yl)acetamide] | – | 98 µM (≈ 39.7 µg/mL) | –
8 | CC(NC(=O)Cn1cnc2cccc([N+](=O)[O-])c21)c1ccc(OC2CCCC2)nc1 (stereo not shown) [Example 12, N-{1-[6-(cyclopentyloxy)pyridine-3-yl]ethyl}-2-(7-nitro-1H-benzimidazol-1-yl)acetamide] | 5 nM | – | –
9 | CC(NC(=O)Cn1cnc2cccc([N+](=O)[O-])c21)c1ccc(OCC(F)(F)F)cc1 (stereo not shown) [Example 14, 2-(7-nitro-1H-benzimidazol-1-yl)-N-{1-[4-(2,2,2-trifluoroethoxy)phenyl]ethyl}acetamide] | – | 63 µM (≈ 26.6 µg/mL) | –
10 | CC[C@H](C)Oc1ccc([C@H](C)NC(=O)Cn2cnc3cccc([N+](=O)[O-])c32)cc1 [Example 15, N-[(1S)-1-(4-{[(1S)-1-methylpropyl]oxy}phenyl)ethyl]-2-(7-nitro-1H-benzimidazol-1-yl)acetamide] | 1 nM | – | –
11 | CC(NC(=O)Cn1cnc2cccc([N+](=O)[O-])c21)c1ccc(C(F)(F)Cl)cc1 (stereo not shown) [Example 16, N-(1-{4-[chloro(difluoro)methyl]phenyl}ethyl)-2-(7-nitro-1H-benzimidazol-1-yl)acetamide] | 10 nM | – | –
12 | CC(NC(=O)Cn1cnc2cccc([N+](=O)[O-])c21)c1ccc(OCC(F)F)cc1 (stereo not shown) [Example 19, N-{1-[4-(2,2-difluoroethoxy)phenyl]ethyl}-2-(7-nitro-1H-benzimidazol-1-yl)acetamide] | – | 75 µM (≈ 30.3 µg/mL) | –
13 | CC(NC(=O)Cn1cnc2cccc([N+](=O)[O-])c21)c1ccc(OC(F)(F)C(F)F)cc1 (stereo not shown) [Example 22, 2-(7-nitro-1H-benzimidazol-1-yl)-N-{1-[4-(1,1,2,2-tetrafluoroethoxy)phenyl]ethyl}acetamide] | 5 nM | – | –
14 | CC(NC(=O)Cn1cnc2cccc(C#N)c21)c1ccc(OC(CF)CF)cc1 (stereo not shown) [Example 24, 2-(7-cyano-1H-benzimidazol-1-yl)-N-(1-{4-[2-fluoro-1-(fluoromethyl)ethoxy]phenyl}ethyl)acetamide] | – | 94 µM (≈ 37.5 µg/mL) | –
15 | CCC(NC(=O)Cn1cnc2cccc([N+](=O)[O-])c21)c1ccc(C(F)(F)F)cn1 (stereo not shown) [Example 29, 2-(7-nitro-1H-benzimidazol-1-yl)-N-{1-[5-(trifluoromethyl)pyridin-2-yl]propyl}acetamide] | – | 92 µM (≈ 37.5 µg/mL) | –
16 | CC(NC(=O)Cn1cnc2cccc([N+](=O)[O-])c21)c1ccc(C(F)(F)F)cn1 (stereo not shown) [Example 30, 2-(7-nitro-1H-benzimidazol-1-yl)-N-{1-[5-(trifluoromethyl)pyridin-2-yl]ethyl}acetamide] | – | 97 µM (≈ 38.2 µg/mL) | –
17 | CC(NC(=O)Cn1cnc2cccc(Cl)c21)c1ncc(C(F)(F)F)cc1Cl (stereo not shown) [Example 31, 2-(7-chloro-1H-benzimidazol-1-yl)-N-{1-[3-chloro-5-(trifluoromethyl)pyridin-2-yl]ethyl}acetamide] | – | 87 µM (≈ 36.3 µg/mL) | –
18 | CC(NC(=O)Cn1cnc2cccc([N+](=O)[O-])c21)c1ncc(C(F)(F)F)cc1Cl (stereo not shown) [Example 32, N-{1-[3-chloro-5-(trifluoromethyl)pyridin-2-yl]ethyl}-2-(7-nitro-1H-benzimidazol-1-yl)acetamide] | – | 87 µM (≈ 37.2 µg/mL) | –
19 | CC(C)Oc1ccc(C(C)NC(=O)Cn2cnc3cccc(Cl)c32)cn1 (stereo not shown) [Example 35, 2-(7-chloro-1H-benzimidazol-1-yl)-N-[1-(6-isopropoxypyridin-3-yl)ethyl]acetamide] | – | 100 µM (≈ 37.3 µg/mL) | –
20 | C[C@H](NC(=O)Cn1cnc2ccc(F)c(F)c21)c1ccc(C(C)(C)C)cc1 [Example 52, N-[(1S)-1-(4-tert-butylphenyl)ethyl]-2-(6,7-difluoro-1H-benzimidazol-1-yl)acetamide] | – | – | EC50 [1]: 500 nM; ED50 [1]: 37.4 µmol/kg; Extrapolated Emax [1]: >100%; Emax observed [1]: 74%; EC80 [1]: 1400 nM; EC50 ([2]; po, tested at Tmax): 1600 nM; ED50 ([2]; po, tested at Tmax): 120 µmol/kg; Extrapolated Emax ([2]; non-linear regression): >100%; Emax observed ([2]; reversal of heat hyperalgesia): 78%; EC80 ([2]; tested at Tmax): 4600 nM

Continued, in another order:

Row | IC50 (hVR1) | solubility (aqueous solubility test) | Compound | also measured
21 | 9 nM | – | CC(NC(=O)Cn1cnc2cccc([N+](=O)[O-])c21)c1ccc(OC(F)(F)F)cc1 (stereo not shown) [Example 36, 2-(7-nitro-1H-benzimidazol-1-yl)-N-{1-[4-(trifluoromethoxy)phenyl]ethyl}acetamide] | –
22 | 6 nM | – | CC(NC(=O)Cn1cnc2cccc([N+](=O)[O-])c21)c1ccc(C(F)(F)F)cc1 (stereo not shown) [Example 37, 2-(7-nitro-1H-benzimidazol-1-yl)-N-{1-[4-(trifluoromethyl)phenyl]ethyl}acetamide] | –
23 | – | 86 µM (≈ 33 µg/mL) | CC(C)Oc1ccc(C(C)NC(=O)Cn2cnc3cccc([N+](=O)[O-])c32)cn1 (stereo not shown) [Example 38, N-[1-(6-isopropoxypyridin-3-yl)ethyl]-2-(7-nitro-1H-benzimidazol-1-yl)acetamide] | –
24 | 1 nM | – | CC(NC(=O)Cn1cnc2cccc([N+](=O)[O-])c21)c1ccc(OC2CCCC2)c(F)c1 (stereo not shown) [Example 39, N-{1-[4-(cyclopentyloxy)-3-fluorophenyl]ethyl}-2-(7-nitro-1H-benzimidazol-1-yl)acetamide] | –
25 | 3 nM | – | CC(NC(=O)Cn1cnc2cccc([N+](=O)[O-])c21)c1ccc(C2CC2)cc1 (stereo not shown) [Example 40, N-[1-(4-cyclopropylphenyl)ethyl]-2-(7-nitro-1H-benzimidazol-1-yl)acetamide] | –
26 | – | 82 µM (≈ 28.6 µg/mL) | C#Cc1ccc(C(C)NC(=O)Cn2cnc3cccc([N+](=O)[O-])c32)cc1 (stereo not shown) [Example 41, N-[1-(4-ethynylphenyl)ethyl]-2-(7-nitro-1H-benzimidazol-1-yl)acetamide] | –
27 | – | 77 µM (≈ 26 µg/mL) | C#Cc1ccc(C(C)NC(=O)Cn2cnc3cccc(Cl)c32)cc1 (stereo not shown) [Example 42, 2-(7-chloro-1H-benzimidazol-1-yl)-N-[1-(4-ethynylphenyl)ethyl]acetamide] | –
28 | – | 100 µM (≈ 50.5 µg/mL) | CC(NC(=O)Cn1cnc2cccc([N+](=O)[O-])c21)c1ccc(OC2CCN(C)CC2)c(C(F)(F)F)c1 (stereo not shown) [Example 46, N-{1-[4-[(1-Methylpiperidin-4-yl)oxy]-3-(trifluoromethyl)phenyl]ethyl}-2-(7-nitro-1H-benzimidazol-1-yl)acetamide] | –
29 | 8 nM | – | CO[C@@H](C)COc1ccc(C(C)NC(=O)Cn2cnc3cccc([N+](=O)[O-])c32)cc1C(F)(F)F (stereo partly drawn) [Example 47, N-{1-[4-{[(2S)-2-Methoxypropyl]oxy}-3-(trifluoromethyl)phenyl]ethyl}-2-(7-nitro-1H-benzimidazol-1-yl)acetamide] | –
30 | 7 nM | – | CC(COc1cccc(C(F)(F)F)c1)NC(=O)Cn1cnc2cccc([N+](=O)[O-])c21 (stereo not shown) [Example 48, N-{1-methyl-2-[3-(trifluoromethyl)phenoxy]ethyl}-2-(7-nitro-1H-benzimidazol-1-yl)acetamide] | –
